Key:
Experiment in all cases: relative viability (nuclei count vs DMSO), 5 days (fraction); higher = more cells survive
[1] = compound: COc1cc2nc(N3CCCN(C)CC3)nc(NC3CCN(Cc4ccccc4)CC3)c2cc1OC + Nc1nc2[nH]cc(CCc3ccc(C(=O)N[C@@H](CCC(=O)O)C(=O)O)cc3)c2c(=O)[nH]1 [Pemetrexed] (partner 0.2 µM)
Method in brief: (§1)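 Each reported value is a median over duplicate plates. It expresses relative viability: treated-well nuclei count divided by vehicle-well nuclei count. Lung cancer cell lines in 1536-well plates were dosed by pin tool a day after seeding, alone with one drug or with a fixed anchor-drug dose plus five library-drug doses (not always all listed) in √10 steps, and nuclei were counted after 5 days.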

AZD6482 + Pemetrexed = compound: Cc1cc([C@@H](C)Nc2ccccc2C(=O)O)c2nc(N3CCOCC3)cc(=O)n2c1 [AZD6482] + Nc1nc2[nH]cc(CCc3ccc(C(=O)N[C@@H](CCC(=O)O)C(=O)O)cc3)c2c(=O)[nH]1 [Pemetrexed] (partner 0.2 µM)
Method in brief: as §1

AZD6482 + Tozasertib = compound: Cc1cc([C@@H](C)Nc2ccccc2C(=O)O)c2nc(N3CCOCC3)cc(=O)n2c1 [AZD6482] + Cc1cc(Nc2cc(N3CCN(C)CC3)nc(Sc3ccc(NC(=O)C4CC4)cc3)n2)n[nH]1 [Tozasertib] (partner 0.1 µM)
Method in brief: as §1

AZD6482 + Foretinib = compound: Cc1cc([C@@H](C)Nc2ccccc2C(=O)O)c2nc(N3CCOCC3)cc(=O)n2c1 [AZD6482] + COc1cc2c(Oc3ccc(NC(=O)C4(C(=O)Nc5ccc(F)cc5)CC4)cc3F)ccnc2cc1OCCCN1CCOCC1 [Foretinib] (partner 0.25 µM)
Method in brief: as §1

Cell Line | relative viability ([1]; first compound 0.2 µM) | relative viability ([1]; first compound 0.6325 µM) | relative viability ([1]; first compound 2 µM) | relative viability ([1]; first compound 6.325 µM) | relative viability (AZD6482 + Pemetrexed; first compound 0.08 µM) | relative viability (AZD6482 + Pemetrexed; first compound 0.253 µM) | relative viability (AZD6482 + Pemetrexed; first compound 0.8 µM) | relative viability (AZD6482 + Pemetrexed; first compound 2.53 µM) | relative viability (AZD6482 + Pemetrexed; first compound 8 µM) | relative viability (AZD6482 + Tozasertib; first compound 0.08 µM) | relative viability (AZD6482 + Tozasertib; first compound 0.253 µM) | relative viability (AZD6482 + Tozasertib; first compound 0.8 µM) | relative viability (AZD6482 + Tozasertib; first compound 2.53 µM) | relative viability (AZD6482 + Tozasertib; first compound 8 µM) | relative viability (AZD6482 + Foretinib; first compound 0.08 µM) | relative viability (AZD6482 + Foretinib; first compound 0.253 µM) | relative viability (AZD6482 + Foretinib; first compound 0.8 µM) | relative viability (AZD6482 + Foretinib; first compound 2.53 µM) | relative viability (AZD6482 + Foretinib; first compound 8 µM)
NCI-H2023 | 0.161 | 0.254 | 0.248 | 0.144 | 0.254 | 0.226 | 0.204 | 0.175 | 0.176 | 0.367 | 0.336 | 0.286 | 0.289 | 0.279 | 0.83 | 0.757 | 1.02 | 0.477 | 0.518
NCI-H23 | 0.66 | 0.695 | 0.918 | 0.703 | 0.651 | 0.484 | 0.715 | 0.375 | 0.43 | 0.489 | 0.302 | 0.398 | 0.358 | 0.228 | 0.976 | 0.856 | 0.922 | 0.639 | 0.5
NCI-H1944 | 0.598 | 0.684 | 0.566 | 0.587 | 0.535 | 0.575 | 0.604 | 0.427 | 0.499 | 0.238 | 0.242 | 0.217 | 0.206 | 0.189 | 0.866 | 0.892 | 0.872 | 0.686 | 0.697
NCI-H1793 | 0.919 | 1.19 | 0.945 | 0.797 | 0.509 | 0.545 | 0.818 | 0.416 | 0.383 | 0.256 | 0.189 | 0.219 | 0.226 | 0.15 | 0.575 | 0.431 | 0.507 | 0.3 | 0.322
NCI-H520 | 0.608 | 0.622 | 0.573 | 0.183 | 0.501 | 0.409 | 0.394 | 0.144 | 0.222 | 0.39 | 0.344 | 0.344 | 0.221 | 0.221 | 0.423 | 0.661 | 0.493 | 0.203 | 0.304
NCI-H460 | 0.063 | 0.0592 | 0.0662 | 0.0719 | 0.0644 | 0.0667 | 0.0599 | 0.0555 | 0.0589 | 0.468 | 0.288 | 0.135 | 0.537 | 0.389 | 1.03 | 0.977 | 1 | 0.828 | 0.719
EKVX | 0.422 | 0.404 | 0.404 | 0.41 | 0.368 | 0.373 | 0.317 | 0.265 | 0.348 | 0.337 | 0.296 | 0.344 | 0.362 | 0.202 | 0.746 | 0.654 | 0.921 | 0.542 | 0.614
NCI-H358 | 0.174 | 0.168 | 0.17 | 0.173 | 0.16 | 0.174 | 0.164 | 0.154 | 0.145 | 0.0814 | 0.107 | 0.104 | 0.0733 | 0.0946 | 0.484 | 0.706 | 0.679 | 0.407 | 0.489
EPLC-272H | 0.335 | 0.403 | 0.397 | 0.365 | 0.24 | 0.382 | 0.383 | 0.424 | 0.269 | 0.185 | 0.111 | 0.211 | 0.277 | 0.157 | 0.621 | 0.426 | 0.506 | 0.378 | 0.256
NCI-H1395 | 0.892 | 0.84 | 0.824 | 0.635 | 0.742 | 0.552 | 0.591 | 0.45 | 0.521 | 0.625 | 0.646 | 0.584 | 0.54 | 0.44 | 0.757 | 0.663 | 0.687 | 0.518 | 0.555
NCI-H2126 | 0.74 | 0.623 | 0.637 | 0.644 | 0.683 | 0.677 | 0.692 | 0.411 | 0.434 | 0.786 | 0.804 | 0.669 | 0.423 | 0.561 | 1.08 | 0.954 | 1.12 | 0.757 | 0.724
LXF-289 | 0.924 | 0.879 | 0.999 | 0.828 | 0.678 | 0.94 | 1.08 | 0.849 | 0.922 | 0.178 | 0.135 | 0.171 | 0.207 | 0.122 | 0.912 | 0.916 | 0.977 | 0.938 | 0.831
NCI-H2009 | 1 | 0.972 | 1.03 | 0.943 | 0.972 | 1.12 | 1.11 | 0.724 | 1.01 | 0.677 | 0.733 | 0.637 | 0.503 | 0.521 | 1.12 | 1.24 | 1.24 | 0.83 | 0.747
NCI-H2405 | 1.02 | 1.12 | 1.11 | 1.05 | 0.81 | 0.977 | 0.987 | 0.569 | 0.436 | 0.465 | – | 0.668 | 0.53 | 0.403 | 0.642 | – | 0.968 | 0.608 | 0.57

Source: the supplement of paper PMC10307832
